These results are taken from patent publication US20230081426A1, “COMPOUNDS AND METHODS FOR KRAS MODULATION AND INDICATIONS THEREFOR” (Plexxikon Inc., priority 2020, published 2023).

For experiment [1], the target named is T1, G12D-mutant human KRAS (amino acid residues 1-188) (Homo sapiens, UniProt P01116, G12D).
T1 construct: G12D or G12C-mutant human KRAS (amino acid residues 1-188) with FLAG tag; made in house; host or cells: E. coli
Kind of experiment: KRAS Binding Disruption Assay (AlphaScreen; biotinylated KRpep-2d analogue or RAF1-RBD), G12D. The note with it: KRAS G12D; geometric mean; read-out: KRAS GMean IC50 (uM) MUTATION: G12D. Summed up: (§1)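 AlphaScreen readout: signal falls as compound displaces biotinylated KRpep-2d analogue or RAF1-RBD from mutant KRAS. Both partners at 5-20 nM, 1 h binding at 25° C, then 10 μg/mL Anti-Flag acceptor and streptavidin donor beads for 1 h. IC50 by nonlinear regression of % inhibition.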

For experiment [2], the target named is T2, G12C-mutant human KRAS (amino acid residues 1-188) (Homo sapiens, UniProt P01116, G12C).
T2 construct: G12D or G12C-mutant human KRAS (amino acid residues 1-188) with FLAG tag; made in house; host or cells: E. coli
T2 sequence (P01116 1-188 isoform P01116-2 G12C): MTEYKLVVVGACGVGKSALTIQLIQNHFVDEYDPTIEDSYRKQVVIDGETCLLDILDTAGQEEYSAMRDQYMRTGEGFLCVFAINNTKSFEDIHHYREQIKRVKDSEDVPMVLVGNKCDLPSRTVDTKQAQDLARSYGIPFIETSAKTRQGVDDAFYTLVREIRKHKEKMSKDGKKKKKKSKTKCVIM
Briefly: KRAS Binding Disruption Assay (AlphaScreen; biotinylated KRpep-2d analogue or RAF1-RBD), G12C. The note with it: geometric mean, read-out: KRAS GMean IC50 (uM) MUTATION: G12C. The method in brief:
as §1

The structures appear in SMILES notation.

T1 sequence (P01116 1-188 isoform P01116-2 G12D): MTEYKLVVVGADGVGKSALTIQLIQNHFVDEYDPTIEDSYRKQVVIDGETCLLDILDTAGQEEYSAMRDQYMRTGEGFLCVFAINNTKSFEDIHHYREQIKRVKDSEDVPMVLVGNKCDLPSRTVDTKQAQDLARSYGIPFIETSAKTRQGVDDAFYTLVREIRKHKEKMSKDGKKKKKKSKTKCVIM

On to `CC(C)(COc1nc(N2C[C@H]3CC[C@@H](C2)N3)c2ccc(-c3cc(O)cc4ccccc34)c(F)c2n1)C(=O)O` [P-0647, 3-((4-((1R,5S)-3,8-diazabicyclo[3.2.1]octan-3-yl)-8-fluoro-7-(3-hydroxynaphthalen-1-yl)quinazolin-2-yl)oxy)-2,2-dimethylpropanoic acid], for which the IC50 fell in the range of 0.0001 to 10 µM in experiment [1] and 10 to 100 µM in experiment [2].

For the compound `COC(=O)C(C)(C)COc1nc(N2C[C@H]3CC[C@@H](C2)N3)c2ccc(-c3cc(O)cc4ccccc34)c(F)c2n1` [P-0648, methyl 3-((4-((1R,5S)-3,8-diazabicyclo[3.2.1]octan-3-yl)-8-fluoro-7-(3-hydroxynaphthalen-1-yl)quinazolin-2-yl)oxy)-2,2-dimethylpropanoate], the IC50 in experiment [1] lay in the range of 0.0001 to 10 µM; in experiment [2], 10 to 100 µM.

Regarding `Oc1cc(-c2ccc3c(N4C[C@H]5CC[C@@H](C4)N5)nc(OCCN4CCC(F)(F)C4)nc3c2F)c2ccccc2c1` [P-0649, 4-(4-((1R,5S)-3,8-diazabicyclo[3.2.1]octan-3-yl)-2-(2-(3,3-difluoropyrrolidin-1-yl)ethoxy)-8-fluoroquinazolin-7-yl)naphthalen-2-ol], the IC50 in experiment [1] and in experiment [2] was 0.0001 to 10 µM throughout.

With `Oc1cc(-c2ccc3c(N4C[C@H]5CC[C@@H](C4)N5)nc(OCC4CC(O)C4)nc3c2F)c2ccccc2c1` (stereo partly drawn) [P-0650, 4-(4-((1R,5S)-3,8-diazabicyclo[3.2.1]octan-3-yl)-8-fluoro-2-((3-hydroxycyclobutyl)methoxy)quinazolin-7-yl)naphthalen-2-ol], the IC50 in experiment [1] and in experiment [2] was 0.0001 to 10 µM throughout.

`OCC1(COc2nc(N3C[C@H]4CC[C@@H](C3)N4)c3ccc(-c4cc(O)cc5ccccc45)c(F)c3n2)CCC1` [P-0651, 4-(4-((1R,5S)-3,8-diazabicyclo[3.2.1]octan-3-yl)-8-fluoro-2-((1-(hydroxymethyl)cyclobutyl)methoxy)quinazolin-7-yl)naphthalen-2-ol]: the IC50 in experiment [1] and in experiment [2] was 0.0001 to 10 µM throughout.

In the case of `OCCCOc1nc(N2C[C@H]3CC[C@@H](C2)N3)c2ccc(-c3cc(O)cc4ccccc34)c(F)c2n1` [P-0652, 4-(4-((1R,5S)-3,8-diazabicyclo[3.2.1]octan-3-yl)-8-fluoro-2-(3-hydroxypropoxy)quinazolin-7-yl)naphthalen-2-ol], the IC50 in experiment [1] was 0.0001 to 10 µM; in experiment [2], 10 to 100 µM.

As for `Fc1c(-c2c[nH]c3cccc(CC4CC4)c23)ccc2c(N3C[C@H]4CC[C@@H](C3)N4)nc(OCC34CCCN3CCC4)nc12` [P-0653, 4-((1R,5S)-3,8-diazabicyclo[3.2.1]octan-3-yl)-7-(4-(cyclopropylmethyl)-1H-indol-3-yl)-8-fluoro-2-((tetrahydro-1H-pyrrolizin-7a(5H)-yl)methoxy)quinazoline], the IC50 in experiment [1] and in experiment [2] was 0.0001 to 10 µM throughout.

Consider `CN1CCC[C@H]1COc1nc(N2C[C@H]3CC[C@@H](C2)N3)c2ccc(-c3c[nH]c4cccc(Cl)c34)c(F)c2n1` [P-0654, 4-((1R,5S)-3,8-diazabicyclo[3.2.1]octan-3-yl)-7-(4-chloro-1H-indol-3-yl)-8-fluoro-2-(((S)-1-methylpyrrolidin-2-yl)methoxy)quinazoline], for which the IC50 in experiment [1] fell in the range of 0.0001 to 10 µM; in experiment [2], 10 to 100 µM.

In the case of `O=C(CCO)Nc1nc(N2C[C@H]3CC[C@@H](C2)N3)c2ccc(-c3cc(O)cc4ccccc34)c(F)c2n1` [P-0655, N-(4-((1R,5S)-3,8-diazabicyclo[3.2.1]octan-3-yl)-8-fluoro-7-(3-hydroxynaphthalen-1-yl)quinazolin-2-yl)-3-hydroxypropanamide], the IC50 fell in the range of 0.0001 to 10 µM in experiment [1] and 100 to 1000 µM in experiment [2].

As for `CC(C)(O)CCOc1nc(N2C[C@H]3CC[C@@H](C2)N3)c2ccc(-c3cc(O)cc4ccccc34)c(F)c2n1` [P-0656, 4-(4-((1R,5S)-3,8-diazabicyclo[3.2.1]octan-3-yl)-8-fluoro-2-(3-hydroxy-3-methylbutoxy)quinazolin-7-yl)naphthalen-2-ol], the values for the IC50 in experiment [1] and in experiment [2] were 0.0001 to 10 µM and 10 to 100 µM, respectively.

Consider `COC1CN(c2nc(N3C[C@H]4CC[C@@H](C3)N4)c3ccc(-c4cc(O)cc5ccccc45)c(F)c3n2)C1` [P-0658, 4-(4-((1R,5S)-3,8-diazabicyclo[3.2.1]octan-3-yl)-8-fluoro-2-(3-methoxyazetidin-1-yl)quinazolin-7-yl)naphthalen-2-ol], for which the figures for the IC50 in experiment [1] and in experiment [2] were 0.0001 to 10 µM and 100 to 1000 µM, respectively.

With `CN1C[C@H](O)C[C@H]1COc1nc(N2C[C@H]3CC[C@@H](C2)N3)c2ccc(-c3cc(O)cc4ccccc34)c(F)c2n1` [P-0659, (3R,5S)-5-(((4-((1R,5S)-3,8-diazabicyclo[3.2.1]octan-3-yl)-8-fluoro-7-(3-hydroxynaphthalen-1-yl)quinazolin-2-yl)oxy)methyl)-1-methylpyrrolidin-3-ol], the IC50 in experiment [1] and in experiment [2] was 0.0001 to 10 µM throughout.

For the compound `NC(=O)N1[C@@H]2CC[C@H]1CN(c1nc(OCC34CCCN3CCC4)nc3c(F)c(-c4cc(O)cc5ccccc45)ccc13)C2` [P-0660, (1R,5S)-3-(8-fluoro-7-(3-hydroxynaphthalen-1-yl)-2-((tetrahydro-1H-pyrrolizin-7a(5H)-yl)methoxy)quinazolin-4-yl)-3,8-diazabicyclo[3.2.1]octane-8-carboxamide], the IC50 in experiment [1] and in experiment [2] was 0.0001 to 10 µM throughout.

`NS(=O)(=O)N1[C@@H]2CC[C@H]1CN(c1nc(OCC34CCCN3CCC4)nc3c(F)c(-c4cc(O)cc5ccccc45)ccc13)C2` [P-0662, (1R,5S)-3-(8-fluoro-7-(3-hydroxynaphthalen-1-yl)-2-((tetrahydro-1H-pyrrolizin-7a(5H)-yl)methoxy)quinazolin-4-yl)-3,8-diazabicyclo[3.2.1]octane-8-sulfonamide]: the IC50 in experiment [1] and in experiment [2] was 0.0001 to 10 µM throughout.

For `CN1CCC[C@H]1COc1nc(N2C[C@H]3CC[C@@H](C2)N3S(N)(=O)=O)c2ccc(-c3cc(O)cc4ccccc34)c(F)c2n1` [P-0663, (1R,5S)-3-(8-fluoro-7-(3-hydroxynaphthalen-1-yl)-2-(((S)-1-methylpyrrolidin-2-yl)methoxy)quinazolin-4-yl)-3,8-diazabicyclo[3.2.1]octane-8-sulfonamide], the IC50 in experiment [1] and in experiment [2] was 0.0001 to 10 µM throughout.

As to `N#Cc1cccc2[nH]cc(-c3ccc4c(N5C[C@H]6CC[C@@H](C5)N6)nc(OCC56CCCN5CCC6)nc4c3F)c12` [P-0666, 3-(4-((1R,5S)-3,8-diazabicyclo[3.2.1]octan-3-yl)-8-fluoro-2-((tetrahydro-1H-pyrrolizin-7a(5H)-yl)methoxy)quinazolin-7-yl)-1H-indole-4-carbonitrile], the IC50 in experiment [1] and in experiment [2] was 0.0001 to 10 µM each time.

As to `CCN1CCC[C@H]1COc1nc(N2C[C@H]3CC[C@@H](C2)N3)c2ccc(-c3cc(O)cc4ccccc34)c(F)c2n1` [P-0667, 4-(4-((1R,5S)-3,8-diazabicyclo[3.2.1]octan-3-yl)-2-(((S)-1-ethylpyrrolidin-2-yl)methoxy)-8-fluoroquinazolin-7-yl)naphthalen-2-ol], the IC50 in experiment [1] and in experiment [2] was 0.0001 to 10 µM in each case.

On to `Oc1cc(-c2ccc3c(N4C[C@H]5CC[C@@H](C4)N5)nc(CNC4CC(O)C4)nc3c2)c2ccccc2c1` (stereo partly drawn) [P-0670, 4-(4-((1R,5S)-3,8-diazabicyclo[3.2.1]octan-3-yl)-2-(((3-hydroxycyclobutyl)amino)methyl)quin-azolin-7-yl)naphthalen-2-ol], for which the IC50 fell in the range of 0.0001 to 10 µM in experiment [1] and 100 to 1000 µM in experiment [2].

On to `Oc1cc(-c2ccc3c(N4C[C@H]5CC[C@@H](C4)N5)nc(CN[C@H]4CCOC4)nc3c2)c2ccccc2c1` [P-0671, 4-(4-((1R,5S)-3,8-diazabicyclo[3.2.1]octan-3-yl)-2-((((S)-tetrahydrofuran-3-yl)amino)methyl)quinazolin-7-yl)naphthalen-2-ol], for which the IC50 was in the range of 0.0001 to 10 µM in experiment [1] and 10 to 100 µM in experiment [2].

With `Oc1cc(-c2ccc3c(N4CC5CCC(C4)N5)nc(CN[C@@H]4CCC[C@H]4O)nc3c2)c2ccccc2c1` [P-0672, 4-(4-((1R,5S)-3,8-diazabicyclo[3.2.1]octan-3-yl)-2-((((1R,2R)-2-hydroxycyclopentyl)amino)methyl)quin-azolin-7-yl)naphthalen-2-ol], the IC50 in experiment [1] was 0.0001 to 10 µM; in experiment [2] it was 10 to 100 µM.

Regarding `Oc1cc(-c2ccc3c(N4C[C@H]5CC[C@@H](C4)N5)nc(CNC4CC4)nc3c2)c2ccccc2c1` [P-0673, 4-(4-((1R,5S)-3,8-diazabicyclo[3.2.1]octan-3-yl)-2-((cyclopropylamino)methyl)quinazolin-7-yl)naphthalen-2-ol], the IC50 fell in the range of 0.0001 to 10 µM in experiment [1] and 10 to 100 µM in experiment [2].

As for `NCCCN1CCC[C@H]1COc1nc(N2C[C@H]3CC[C@@H](C2)N3)c2ccc(-c3cc(O)cc4ccccc34)c(F)c2n1` [P-0675, 4-(2-(((S)-1-(3-aminopropyl)pyrrolidin-2-yl)methoxy)-4-((1R,5S)-3,8-diazabicyclo[3.2.1]octan-3-yl)-8-fluoroquinazolin-7-yl)naphthalen-2-ol], the IC50 in experiment [1] and in experiment [2] was 0.0001 to 10 µM throughout.

For `O=C(NCCCN1CCC[C@H]1COc1nc(N2C[C@H]3CC[C@@H](C2)N3)c2ccc(-c3cc(O)cc4ccccc34)c(F)c2n1)OCc1ccccc1` [P-0676, benzyl (3-((S)-2-(((4-((1R,5S)-3,8-diazabicyclo[3.2.1]octan-3-yl)-8-fluoro-7-(3-hydroxynaphthalen-1-yl)quinazolin-2-yl)oxy)methyl)pyrrolidin-1-yl)propyl)carbamate], the IC50 in experiment [1] is 0.0001 to 10 µM; in experiment [2] it was 10 to 100 µM.
